No end group written: not given here.
Tests used:
[1] = system: HPV-specific T-cell response (splenocytes); assay: IFN-g ELISPOT on splenocytes of vaccinated humanized HLA-A2 transgenic mice; assay type: in vivo; settings: for Immune Response, Method: ELISPOT: HLA-A2 humanized transgenic mice, IFN-gamma ELISPOT
Description: (§1) Sequence selection was accomplished herein using both tumor regression studies in C57/B6 mice, and interferon-gamma ELISPOT studies in HLA-A2 humanized transgenic mice. […] In the HLA-A2 mouse model ELISPOT study, at least 20 spots per million splenocytes was regarded to be a positive response.
This example highlights the approach to evaluating T-cell responses using ELISPOT studies in humanized HLA-A2 transgenic mice. In these studies, the vaccine contained the selected peptide at a concentration of 0.1-3.0 mg/mL and cationic liposomes when used, at a concentration of 0.2-3.0 mg/mL. Humanized HLA-A2 transgenic mice having components of the human immune system capable of recognizing human antigens were vaccinated on day 0 and day 7 with 100 uL of the vaccine. On day 14 the mice were sacrificed and HPV-specific immune response evaluated by interferon-gamma ELISPOT using standard approaches with the splecocytes from the mice (4-8 per group). The splenocytes were stimulated with the specified CD8+ T-cell epitope peptides or the long multi-epitope peptides specified in Table 2. The number of IFN-g spots per million cells is listed for the specified examples. […] The ability of the humanized transgenic mice to successfully generate a T-cell immune response (>20 spots) when stimulated with each of the long multi-epitope peptides as well as short single epitope peptides confirms that the selected peptides are effectively processed and presented to T-cells. In these studies, un-stimulated splenocytes and splenocytes stimulated with irrelevant peptides were both used together as negative controls in every assay. For the positive control in the assay ConA was used.
The present study was performed to evaluate the effect of chemical modification of select peptides on immunogenicity and their ability to be processed, presented and to prime human CD8+ HPV-specific T-cell responses. Peptides corresponding to SEQ ID NO: 23 and 25 contain cysteines which upon oxidation lead to the formation of dimers and other multimers. Two vaccine formulations were prepared containing peptides corresponding to SEQ ID NO: 23 and 25.
In Formulation A: Both peptides were monomeric with high purity confirmed by HPLC analysis. The vaccine contained 1.5-1.6 mg/mL of each peptide.
In Formulation B: Significant oxidation and multimer formation of both peptides was confirmed by HPLC analysis.
Both formulations were mixed 1:1 with 5.8 mg/mL of R-DOTAP prior to vaccination.
The immunogenicity of the peptides was compared as described in the above examples in 10 HLA-A2 mice per formulation by evaluating the ability to induce CD8+ T-cells. ELISPOT studies were performed as described above.

[2] = system: TC-1 tumor; assay: TC-1 tumor regression screening of peptides in C57/B6 mice; assay type: in vivo; design: key: Positive: a positive T-cell response was a T-cell response that resulted in regression of the tumor; settings: TC-1 tumors in C57/B6 mice, vaccinated day 7, peptide alone or with cationic lipid
Description: as §1
This example illustrates the evaluation or screening of several HPV16 E7 peptides in the TC-1 mouse tumor regression model for their effective processing and presentation of the key epitopes leading to HPV-specific T-cell induction and subsequent tumor regression.
In the tumor regression screening studies mice were implanted with 100,000 TC-1 cells on day 0. On day 7, once the tumors were well established the mice were vaccinated with the specific peptide sequences, either formulated alone or in combination with cationic lipids such as DOTMA, DOEPC or R-DOTAP to facilitate up-take and presentation. In these studies, the vaccine contained the selected peptide at a concentration of 0.1-3.0 mg/mL and cationic liposomes at a concentration of 0.2-3.0 mg/mL. In the cases where the peptide sequences were lipidated by attaching a palmitoyl chain, the peptides were simply mixed with the cationic liposomes prior to vaccination. In the case of the non-lipidated peptides, the liposomes were made and peptides encapsulated by traditional thin film liposome preparation methods (F Szoka, and D Papahadjopoulos, Comparative Properties and Methods of Preparation of Lipid Vesicles (Liposomes), Annual Review of Biophysics and Bioengineering, Vol. 9:467-508, 1980). Other methods well known to those skilled in the art may also have been used.
A sample tumor regression plot showing results for peptides corresponding to SEQ ID NO: 1 (blank square), SEQ ID NOS: 7, 8, 31 32 and 31 (solid black circle), SEQ ID NO: 7 (blank circle), and SEQ ID NO: 8 (solid black triangle) is shown in FIG. 3.

[3] = splenocytes stimulated with YMLDLQPETT (SEQ ID NO: 14)
[4] = splenocytes stimulated with LLMGTLGIV (SEQ ID NO: 15)
[5] = splenocytes stimulated with TIHDIILECV (SEQ ID NO: 21)
[6] = splenocytes stimulated with TLGIVCPIC (SEQ ID NO: 22)

Row | Compound | Immune Response, Method: ELISPOT [1] | Immune Response, Method: tumor regression [2] | other results
1 | QQLLRREVYDFAFRDLCIVYR [SEQ ID NO: 13, printed as E7 42-62 peptide] | Negative, ELISPOT |  | ELISPOT result Av spots/10^6 cells ([1]; splenocytes stimulated with FAFRDLCIV (SEQ ID NO: 29)): 6 spots/10^6 cells
2 | MHGDTPTLHEYMLDLQPETT [SEQ ID NO: 9] | Positive, EISPOT (at least 20 spots per million splenocytes was regarded to be a positive response) |  | ELISPOT result Av spots/10^6 cells [1, 3]: 235 spots/10^6 cells
3 | PalmKSS LLMGTLGIV [SEQ ID NO: 28] | Positive, ELISPOT (at least 20 spots per million splenocytes was regarded to be a positive response) |  | ELISPOT result Av spots/10^6 cells [1, 4]: 96 spots/10^6 cells
4 | PalmKSS YMLDLQPETT [SEQ ID NO: 27] | Positive, ELISPOT (at least 20 spots per million splenocytes was regarded to be a positive response) |  | ELISPOT result Av spots/10^6 cells [1, 3]: 280 spots/10^6 cells
5 | KSS RAHYNIVTF (KSSRAHYNIVTF) [SEQ ID NO: 4, HPV16 E7 49-57 peptide with KSS] |  | Positive, tumor regression | 
6 | PalmKSS ELQTTIHDIILECVYCKQQLL [SEQ ID NO: 23] | Positive, ELISPOT (at least 20 spots per million splenocytes was regarded to be a positive response) |  | ELISPOT result Av spots/10^6 cells ([1]; Formulation A (monomeric peptides SEQ ID NO: 23 and 25, with R-DOTAP), stimulated with TIHDIILECV (SEQ ID NO: 21)): 314 spots/10^6 cells; ELISPOT result Av spots/10^6 cells ([1]; Formulation B (oxidized, multimer peptides SEQ ID NO: 23 and 25, with R-DOTAP), stimulated with TIHDIILECV (SEQ ID NO: 21)): 158 spots/10^6 cells; ELISPOT result Av spots/10^6 cells ([1]; splenocytes stimulated with ELQTTIHDIILECVYCKQQLL (SEQID NO: 13)): 8 spots/10^6 cells; ELISPOT result Av spots/10^6 cells [1, 5]: 612 spots/10^6 cells
7 | PalmKSS MHGDTPTLHEYMLDLQPETT [SEQ ID NO: 24] | Positive, ELISPOT (at least 20 spots per million splenocytes was regarded to be a positive response) |  | ELISPOT result Av spots/10^6 cells ([1]; splenocytes stimulated with MHGDTPTLHEYMLDLQPETT (SEQ ID NO: 9)): 284 spots/10^6 cells; ELISPOT result Av spots/10^6 cells [1, 3]: 79 spots/10^6 cells
8 | EPDRAHYNIVTFCCKCDS [SEQ ID NO: 8, HPV16 E7 46-63 peptide] |  | Negative, tumor regression | 
9 | ELQTTIHDIILECVYCKQQLL [SEQ ID NO: 11, HPV16 E6 25-45 peptide] | Positive, ELISPOT (at least 20 spots per million splenocytes was regarded to be a positive response) |  | ELISPOT result Av spots/10^6 cells [1, 5]: 262 spots/10^6 cells
10 | KSS GQAEPDRAHYNIVTF (KSSGQAEPDRAHYNIVTF) [SEQ ID NO: 6, HPV16 E7 43-57 peptide with KSS] |  | Negative, tumor regression | 
11 | DRAHYNIVTF [SEQ ID NO: 2, HPV16 E7 48-57 peptide] |  | Negative, tumor regression | 
12 | CSCC[C@H](NC(=O)[C@@H](N)Cc1ccc(O)cc1)C(=O)N[C@@H](CC(C)C)C(=O)N[C@@H](CC(=O)O)C(=O)N[C@@H](CC(C)C)C(=O)N[C@@H](CCC(N)=O)C(=O)N1CCC[C@H]1C(=O)N[C@@H](CCC(=O)O)C(=O)N[C@H](C(=O)N[C@H](C(=O)O)[C@@H](C)O)[C@@H](C)O [SEQ ID NO: 14] | Positive, ELISPOT (at least 20 spots per million splenocytes was regarded to be a positive response) |  | ELISPOT result Av spots/10^6 cells [1, 3]: 580 spots/10^6 cells
13 | GQAEPDRAHYNIVTF [SEQ ID NO: 5, HPV16 E7 43-57 peptide] |  | Positive, tumor regression | 
14 | PAGQAEPDRAHYNIVTFC [SEQ ID NO: 7, HPV16 E7 41-58 peptide] |  | Positive, tumor regression | 
15 | PalmKSS LLMGTLGIVCPICSQKP [SEQ ID NO: 25] | Positive, ELISPOT (at least 20 spots per million splenocytes was regarded to be a positive response) |  | ELISPOT result Av spots/10^6 cells ([1]; Formulation A (monomeric peptides SEQ ID NO: 23 and 25, with R-DOTAP), stimulated with LLMGTLGIV (SEQ ID NO: 15)): 52 spots/10^6 cells; ELISPOT result Av spots/10^6 cells ([1]; Formulation B (oxidized, multimer peptides SEQ ID NO: 23 and 25, with R-DOTAP), stimulated with LLMGTLGIV (SEQ ID NO: 15)): 48 spots/10^6 cells; ELISPOT result Av spots/10^6 cells [1, 4]: 5 spots/10^6 cells; ELISPOT result Av spots/10^6 cells ([1]; splenocytes stimulated with LLMGTLGIVCPICSQKP (SEQ ID NO: 10)): 92 spots/10^6 cells; ELISPOT result Av spots/10^6 cells [1, 6]: 31 spots/10^6 cells
16 | PalmKSS RAHYNIVTF [SEQ ID NO: 3] |  | Positive, tumor regression | 
17 | CDSTLRLCVQ STHVDIRT (CDSTLRLCVQSTHVDIRT) [SEQ ID NO: 32, E7 61-78 peptide] |  | Positive, tumor | 
18 | KFYSKISEYRHCYYSLYGTTL [SEQ ID NO: 12, printed as E7 75-95 peptide] | Negative, ELISPOT |  | ELISPOT result Av spots/10^6 cells ([1]; splenocytes stimulated with KISEYRHCY (SEQ ID NO: 30)): 15 spots/10^6 cells
19 | CC[C@H](C)[C@H](NC(=O)CNC(=O)[C@H](CC(C)C)NC(=O)[C@@H](N)[C@@H](C)O)C(=O)N[C@H](C(=O)N[C@@H](CS)C(=O)N1CCC[C@H]1C(=O)N[C@H](C(=O)N[C@@H](CS)C(=O)O)[C@@H](C)CC)C(C)C [SEQ ID NO: 22] | Positive, ELISPOT (at least 20 spots per million splenocytes was regarded to be a positive response) |  | 
20 | CC[C@H](C)[C@H](NC(=O)CNC(=O)[C@H](CC(C)C)NC(=O)[C@@H](NC(=O)CNC(=O)[C@H](CCSC)NC(=O)[C@H](CC(C)C)NC(=O)[C@@H](N)CC(C)C)[C@@H](C)O)C(=O)N[C@H](C(=O)O)C(C)C [SEQ ID NO: 15] | Positive, ELISPOT (at least 20 spots per million splenocytes was regarded to be a positive response) |  | 
21 | LLMGTLGIVCPICSQKP [SEQ ID NO: 10, HPV16 E7 82-98 peptide] | Positive, ELISPOT (at least 20 spots per million splenocytes was regarded to be a positive response) |  | ELISPOT result Av spots/10^6 cells [1, 4]: 1 spots/10^6 cells; ELISPOT result Av spots/10^6 cells [1, 6]: 27 spots/10^6 cells
22 | TIHDIILECV [SEQ ID NO: 21, printed as E7 29-38 peptide] | Positive, ELISPOT (at least 20 spots per million splenocytes was regarded to be a positive response) |  | 
23 | RAHYNIVTF [SEQ ID NO: 1] |  | Positive, tumor regression | 

From patent publication US11401306B2, “HPV16 non HLA-restricted t-cell vaccines, compositions and methods of use thereof” (priority 2016, dated 2022)
